Drawing on patent publication US20050222146A1, “N-substituted-n-sulfonylaminocyclopropane compounds and pharmaceutical use thereof” (priority 2003, published 2005), this text covers IC50 for 17 compounds.

As usually defined, the IC50 is the point on the concentration scale where inhibition reaches its midpoint.

Assay [1] addresses T1, MMP-1 (Homo sapiens, UniProt P03956).
T1 sequence (P03956 100-469): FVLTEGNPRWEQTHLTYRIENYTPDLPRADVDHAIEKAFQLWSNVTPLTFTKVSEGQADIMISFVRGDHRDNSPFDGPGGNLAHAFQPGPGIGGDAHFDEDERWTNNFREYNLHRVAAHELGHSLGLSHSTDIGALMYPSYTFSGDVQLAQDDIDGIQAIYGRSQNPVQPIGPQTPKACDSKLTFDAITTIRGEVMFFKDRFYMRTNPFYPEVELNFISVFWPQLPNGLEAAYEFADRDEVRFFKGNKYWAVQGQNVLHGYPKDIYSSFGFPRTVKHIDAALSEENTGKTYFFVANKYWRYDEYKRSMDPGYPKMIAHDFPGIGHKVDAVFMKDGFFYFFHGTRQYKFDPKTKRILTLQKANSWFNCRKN
As to the kind of experiment: MMP-1 inhibitory action, Type I collagen Activity Measurement kit (FITC-labeled collagen type I). Format: biochemical. The note with it: 37° C. for 3 hr, read-out: Experimental Example 2 IC50 MMP1. As for the experimental part: For MMP-1 Assay, Type I collagen Activity Measurement kit (YAGAI YU-72013) modified to a 96-well plate format was used.
The principle of the kit is based on the property of collagen that becomes soluble in ethanol after being cleaved by MMP-1.
(§1) The enzyme and substrate were diluted with Tris-HCl buffer, and test compounds were diluted with dimethyl sulfoxide (DMSO).
The enzyme and test compounds were added into 96-well plate, and fluorescein isothiocianate (FITC)-labeled collagen type I was added as a substrate and the mixture was incubated at 37° C. for 3 hr.
The reaction was terminated by addition of Tris-HCl buffer containing ethanol. After centrifugation, the supernatant containing denatured substrate was transferred to another 96-well plate. The collagenase activity of MMP-1 was determined by measuring FITC fluorescence intensity (excitation wavelength 485 nm, emission wavelength 530 nm) of each well. The inhibitory activity of the compound in each well (%) was calculated based on the values of enzyme-free well and inhibitor-free well. The inhibitory activity of the compound was represented as IC50 (μM).

Assay [2] deals with T2, aggrecanase-1 (Homo sapiens, UniProt O75173).
T2 sequence (O75173 213-837): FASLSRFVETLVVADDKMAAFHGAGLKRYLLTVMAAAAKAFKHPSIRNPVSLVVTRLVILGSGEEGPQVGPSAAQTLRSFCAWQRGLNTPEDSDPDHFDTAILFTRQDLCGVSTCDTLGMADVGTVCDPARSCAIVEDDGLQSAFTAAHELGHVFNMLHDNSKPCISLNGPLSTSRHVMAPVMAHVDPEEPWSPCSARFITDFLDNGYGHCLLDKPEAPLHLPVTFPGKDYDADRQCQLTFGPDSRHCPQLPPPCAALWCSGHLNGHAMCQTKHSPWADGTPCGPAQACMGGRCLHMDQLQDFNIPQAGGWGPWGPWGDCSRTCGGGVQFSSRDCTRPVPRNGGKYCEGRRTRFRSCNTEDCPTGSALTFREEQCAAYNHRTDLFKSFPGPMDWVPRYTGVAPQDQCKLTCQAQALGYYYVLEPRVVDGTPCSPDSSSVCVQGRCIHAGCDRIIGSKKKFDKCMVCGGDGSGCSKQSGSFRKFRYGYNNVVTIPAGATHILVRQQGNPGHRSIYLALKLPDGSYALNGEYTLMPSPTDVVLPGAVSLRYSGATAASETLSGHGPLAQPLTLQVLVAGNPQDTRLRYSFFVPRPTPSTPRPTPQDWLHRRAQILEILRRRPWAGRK
Put plainly: Aggrecanase-1 inhibitory action, Particle Assay (GAG release from aggrecan-containing polyacrylamide particles). It counts as biochemical. Conditions: 37° C. for 15 hr, read-out: Experimental Example 1 IC50 AG1. As for the experimental part:
Aggrecanase-1 Inhibitory Action
Particle Assay was used for determination of aggrecanase activity.
as §1
Test compounds and the enzyme were added into 96-well plate, and polyacrylamide particles containing aggrecan were added as a substrate and the mixture was incubated at 37° C. for 15 hr.
After incubation; the supernatant was transferred to another plate, and mixed with 1,9-dimethylmethylene blue. The absorbance at 595 nm was measured to quantify the amount of glycosaminoglycan (GAG) released in the reaction supernatant. Whale chondroitin sulfate was used as the standard of GAG. The inhibitory activity of the compound in each well (%) was calculated based on the values of enzyme-free well and inhibitor-free well. The inhibitory activity of the compound was represented as IC50 (μM).

For `O=C(O)C(=O)c1ccc(CN(C2(C(=O)O)CC2c2ccccc2)S(=O)(=O)c2ccc(-c3ccc(Cl)cc3)cc2)cc1` (stereo not drawn) [Example 1-103, (1R*,2S*)-1-[(4′-chloro-biphenyl-4-sulfonyl)-(4-oxalyl-benzyl)-amino]-2-phenyl-cyclopropanecarboxylic acid], the IC50 in assay [1] is no less than 10000 nM; in assay [2], less than 100 nM.

On to `CC(C)OC(=O)NS(=O)(=O)NCCN([C@]1(C(=O)O)C[C@H]1c1ccccc1)S(=O)(=O)c1ccc(-c2ccc(Cl)cc2)cc1` (relative stereo) [Example 1-9, (1R*, 2S*)-1-[(4′-chloro-biphenyl-4-sulfonyl)-(2-isopropoxycarbonylaminosulfonylamino-ethyl)-amino]-2-phenyl-cyclopropanecarboxylic acid], for which the results for the IC50 in assay [1] and in assay [2] were no less than 10000 nM and less than 1000 nM, respectively.

As for `O=C(CN([C@]1(C(=O)O)C[C@H]1c1ccccc1)S(=O)(=O)c1ccc(-c2ccc(Cl)cc2)cc1)Nc1nnn[nH]1` (relative stereo) [Example 1-61, (1R*,2S*)-1-{(4′-chloro-biphenyl-4-sulfonyl)-[(1H-tetrazol-5-ylcarbamoyl)-methyl]-amino}-2-phenyl-cyclopropanecarboxylic acid], the results for the IC50 in assay [1] and in assay [2] were no less than 10000 nM and less than 1000 nM, respectively.

For the compound `O=C(O)CN([C@]1(C(=O)O)C[C@H]1c1ccccc1Cc1ccccc1)S(=O)(=O)c1ccc(-c2ccc(Cl)cc2)cc1` (relative stereo) [Example 1-31, (1R*,2S*)-2-(2-benzyl-phenyl)-1-[carboxymethyl-(4′-chloro-biphenyl-4-sulfonyl)-amino]-cyclopropanecarboxylic acid], the concentration for half-maximal inhibition (IC50) in assay [1] was no less than 10000 nM; in assay [2], less than 100 nM.

Regarding `O=C(O)CN([C@]1(C(=O)O)C[C@H]1c1ccc(Cl)c(Cl)c1)S(=O)(=O)c1ccc(-c2ccc(Cl)cc2)cc1` (relative stereo) [Example 1-23, (1R*,2S*)-1-[carboxymethyl-(4′-chloro-biphenyl-4-sulfonyl)-amino]-2-(3,4-dichloro-phenyl)-cyclopropanecarboxylic acid], the IC50 was no less than 10000 nM in assay [1] and less than 1000 nM in assay [2].

For the compound `O=C(O)c1cccc(CN(C2(C(=O)O)CC2c2cccc(OCCn3ccnc3)c2)S(=O)(=O)c2ccc(-c3ccc(Cl)cc3)cc2)c1` (stereo not drawn) [Example 1-95, 3-{[{(1R*,2S*-1-carboxy-2-[3-(2-imidazol-1-yl-ethoxy)-phenyl]-cyclopropyl}-(4′-chloro-biphenyl-4-sulfonyl)-amino]-methyl}-benzoic acid], the figures for the IC50 in assay [1] and in assay [2] were no less than 1000 nM and less than 100 nM, respectively.

On to `CC(C)COc1cccc([C@@H]2C[C@@]2(C(=O)O)N(CC(=O)O)S(=O)(=O)c2ccc(-c3ccc(Cl)cc3)cc2)c1` (relative stereo) [Example 1-47, (1R*,2S*)-1-[carboxymethyl-(4′-chloro-biphenyl-4-sulfonyl)-amino]-2-(3-isobutoxy-phenyl)-cyclopropanecarboxylic acid], for which the IC50 in assay [1] is no less than 10000 nM; in assay [2], less than 100 nM.

As for `Cc1ccccc1[C@@H]1C[C@@]1(C(=O)O)N(CC(=O)O)S(=O)(=O)c1ccc(-c2ccc(Cl)cc2)cc1` (relative stereo) [Example 1-19, (1R*,2S*)-1-[carboxymethyl-(4′-chloro-biphenyl-4-sulfonyl)-amino]-2-(2-methyl-phenyl)-cyclopropanecarboxylic acid], the IC50 is no less than 10000 nM in assay [1] and less than 1000 nM in assay [2].

As to `O=C(O)CN([C@]1(C(=O)O)C[C@H]1c1cccc(Oc2ccccc2)c1)S(=O)(=O)c1ccc(-c2ccc(Cl)cc2)cc1` (relative stereo) [Example 1-25, (1R*,2S*)-1-[carboxymethyl-(4′-chloro-biphenyl-4-sulfonyl)-amino]-2-(3-phenoxy-phenyl)-cyclopropanecarboxylic acid], the figures for the IC50 in assay [1] and in assay [2] were no less than 10000 nM and less than 100 nM, respectively.

Consider `CNC(=O)c1cnn(CCN([C@]2(C(=O)O)C[C@H]2c2ccccc2)S(=O)(=O)c2ccc(-c3ccc(Cl)cc3)cc2)c1` (relative stereo) [Example 1-106, (1R*,2S*)—{(4′-chloro-biphenyl-4-sulfonyl)-[2-(4-methylcarbamoyl-pyrazol-1-yl)-ethyl]-amino}-2-phenyl-cyclopropanecarboxylic acid], for which the IC50 in assay [1] was no less than 1000 nM; in assay [2], less than 1000 nM.

Turning to `O=C(O)c1cccc(CN(C2(C(=O)O)CC2c2cccc(Oc3cccnc3)c2)S(=O)(=O)c2ccc(-c3ccc(Cl)cc3)cc2)c1` (stereo not drawn) [Example 1-102, 3-{[{(1R*,2S*-1-carboxy-2-[3-(pyridin-3-yloxy)-phenylcyclopropyl}-(4′-chloro-biphenyl-4-sulfonyl)-amino]-methyl}-benzoic acid], the IC50 is no less than 10000 nM in assay [1] and less than 100 nM in assay [2].

On to `O=C(O)[C@@]1(N(Cc2nn[nH]n2)S(=O)(=O)c2ccc(-c3ccc(Cl)cc3)cc2)C[C@H]1c1ccccc1` (relative stereo) [Example 1-15, (1R*,2S*)-1-[(4′-chloro-biphenyl-4-sulfonyl)-(2H-tetrazol-5-ylmethyl)-amino]-2-phenyl-cyclopropanecarboxylic acid], for which the half-maximal inhibitory concentration (IC50) in assay [1] was no less than 10000 nM; in assay [2] it was less than 1000 nM.

Regarding `O=C(O)CN([C@]1(C(=O)O)C[C@H]1c1cccc(Cc2ccccc2)c1)S(=O)(=O)c1ccc(-c2ccc(Cl)cc2)cc1` (relative stereo) [Example 1-44, (1R*, 2S*)-2-(3-benzyl-phenyl)-1-[carboxymethyl-(4′-chloro-biphenyl-4-sulfonyl)-amino]-cyclopropanecarboxylic acid], the IC50 in assay [1] is no less than 10000 nM; in assay [2], less than 100 nM.

Consider `O=C(O)CN([C@]1(C(=O)O)C[C@H]1c1ccccc1)S(=O)(=O)c1ccc(-c2ccc(Cl)cc2)cc1` [Example 1-2, (1R,2S)-1-[carboxymethyl-(4′-chloro-biphenyl-4-sulfonyl)-amino]-2-phenyl-cyclopropanecarboxylic acid], for which the results for the IC50 in assay [1] and in assay [2] were no less than 10000 nM and less than 100 nM, respectively.

In the case of `O=C(O)CN([C@]1(C(=O)O)C[C@H]1c1cccc(OC2CCCCC2)c1)S(=O)(=O)c1ccc(-c2ccc(Cl)cc2)cc1` (relative stereo) [Example 1-48, (1R*,2S*)-1-[carboxymethyl-(4′-chloro-biphenyl-4-sulfonyl)-amino]-2-(3-cyclohexyloxy-phenyl)-cyclopropanecarboxylic acid], the IC50 in assay [1] was no less than 10000 nM; in assay [2] it was less than 100 nM.

In the case of `O=C(O)c1cccc(CN([C@]2(C(=O)O)C[C@H]2c2cccc(OCCn3cccn3)c2)S(=O)(=O)c2ccc(-c3ccc(Cl)cc3)cc2)c1` (relative stereo) [Example 1-108, 3-{[{(1R*,2S*)-1-carboxy-2-[3-(2-pyrazol-1-yl-ethoxy)-phenyl]-cyclopropyl}-(4′-chloro-biphenyl-4-sulfonyl)-amino]-methyl}-benzoic acid], the IC50 in assay [1] was no less than 10000 nM; in assay [2], less than 1000 nM.

As for `O=C(O)[C@@]1(N(CCNS(=O)(=O)C(F)(F)F)S(=O)(=O)c2ccc(-c3ccc(Cl)cc3)cc2)C[C@H]1c1ccccc1` (relative stereo) [Example 1-63, (1R*,2S*)-1-[(4′-chloro-biphenyl-4-sulfonyl)-(2-trifluoromethanesulfonylamino-ethyl)-amino]-2-phenyl-cyclopropanecarboxylic acid], the IC50 in assay [1] was no less than 10000 nM; in assay [2], less than 1000 nM.
